Data: publication PMC4861708 (Frontiers in Cell and Developmental Biology, 2016)
In brackets after ≈: the same amount, converted by molar mass. Read-outs that look alike come from different tables or passages of the source. Where a SMILES comes first, the peptide text is derived from it. [ ]: non-standard residue; d: D form. The star is where a group is joined. Orn(α-tetramethylguanidino) = CN(C)C(=N[C@@H](CCCN)C(=O)*)N(C)C; Orn = NCCC[C@H](N)C(=O)O

Assays:
[1] = Quartz crystal microbalance, membrane interaction; format: binding
Experimental: Data were acquired with the Q-Sense E4 system (Q-sense, Sweden using polished, gold-coated, AT-cut quartz sensors with a fundamental frequency of ca. 5 MHz (Q-Sense, Västra Frölunda, Sweden) (Mechler et al., [2007]; McCubbin et al., [2011]). Briefly, sensors were cleaned with hydrogen peroxide (6% w/v) and aqueous ammonia (5.6% w/v) for 20 min (70–75°C), washed with water, and then activated with 3-mercaptopropionic acid (1 mmol/L in isopropanol) overnight. Liposomes consisting of DMPC and DMPG (molar ratio of 4:1) were deposited onto the sensors, washed with “high salt” PBS (20 mmol/L potassium phosphate, 0.1 mol/L NaCl, pH 6.9) and then with “low salt” PBS (10 mmol/L potassium phosphate, 30 mmol/L NaCl, pH 6.9). The system was equilibrated at 19.1 ± 0.1°C with “high salt” PBS, prior to the introduction of peptide solutions (2; 5; 10 and 20 μmol/L, 1 mL each in “high salt” PBS) at a flow rate of 50 μL/min over 20 min followed by an incubation, without any flow. Afterwards the “high salt” PBS was again introduced at 300 μL/min to determine if any surface materials could be removed from the sensor. Changes in the sensor frequency (Δf) and dissipation (ΔD) were monitored for the third, fifth, seventh, and ninth harmonic using Q-Soft (Q-Sense) and analyzed using Origin 8 software.

HeLa cells [2] = tested on: HeLa cells; design: method as in Berthold et al., 2013; Bluhm et al., 2015; conditions: ref Berthold et al., 2013, Bluhm et al., 2015; cited from earlier work
human erythrocytes = test: Hemolysis assay; format: cell-based; conditions: 0.1 g/L peptide, 1 h
Experimental: Human EDTA blood (S-Monovette® with potassium-EDTA Sarstedt AG, Nümbrecht, Germany) was centrifuged (3 min, 300 × g, 4°C) and blood cells were washed three times using the 10-fold volume of cold PBS. The diluted blood cell suspension (2% v/v in PBS, 50 μL) was mixed with a peptide solution (1.2 or 0.2 g/L in PBS, 50 μL) or triton X-100 (1%, v/v in PBS; control) in 96-well plates (PP, V-bottom). After incubation under constant shaking (1 h, 37°C, 300 rpm, Eppendorf Thermomixer) the suspension was centrifuged (3 min, 4°C, 1000 × g) and the OD405 of the supernatant was measured in a 384-well plate (PS, flat bottom, Paradigm microplate reader, Molecular Devices, Sunnyvale, USA). The hemolytic grade (HG) was calculated as [(ODPeptide−ODPBS)/(ODTriton−ODPBS)] × 100%.

HeLa cells [3] = test: in vitro; format: cell-based; conditions: 24 h
Experimental: (§1) Human embryonic kidney (HEK293) and HeLa cells were cultured in Dulbecco's modified Eagle's/Ham's F-12 medium [DMEM/F-12 (1:1)] supplemented with FBS (10% v/v), penicillin, and streptomycin (1000 units each). Primary rat cardiomyocytes (Innoprot, Elexalde Derio, Spain) were grown in medium supplemented with FBS (20% v/v), horse serum (5% v/v), L-glutamine (2 mmol/L), sodium pyruvate (2 mmol/L), MEM non-essential amino acids (Gibco, 0.1 mmol/L), penicillin, and streptomycin (1000 units each). Surfaces for cardiomyocyte growth were coated with attachment factor first. Cells (20,000/well) were seeded into a 96-well plate (PS, sterile, flat bottom), incubated for 24 h (37°C, 5% CO2), and washed twice with PBS (100 μl/well) prior to adding colorless medium (88 μL) and peptide solution (12 μL; 5, 2.5, 1.25, […], and 0.625 g/L in PBS). Positive controls were triton X-100 (1%, v/v) and melittin (60 mg/L) as lytic peptide, whereas PBS (12%, v/v) served as negative control. After an incubation period of 24 h, supernatant (25 μL) was mixed with lactate dehydrogenase (LDH) substrate (175 μL; 0.57 mmol/L sodium pyruvate, 0.24 mmol/L NADH disodium salt, 32 mmol/L potassium dihydrogen phosphate, 66 mmol/L dipotassium phosphate) in 96-well plates (PS, sterile, flat bottom). Absorbance was recorded at 340 nm every 3 min for 30 min on the Paradigm microplate reader. Due to the total release of LDH upon triton X-100 treatment, the control contained high LDH concentrations resulting in a fast substrate turnover that was only linear for the first 6 min.
(§2) The MTT cell viability assay relied on the same cell culture. Remaining medium was replaced by a mixture of fresh colorless medium (100 μL) and MTT (10 μL; 5 g/L in PBS) and incubated for 4 h (37°C, 5% CO2). A solution of sodium dodecyl sulfate (100 μL; 10%, w/v) dissolved in hydrochloric acid (10 mmol/L) was added, incubated (16 h), and the absorbance recorded at 590 nm relative to the reference at 650 nm (Paradigm microplate reader). The relative cell viability was calculated by [(ODPeptide − ODTriton)/(ODPBS − ODTriton)] × 100% and half-maximal inhibitory concentrations (IC50) with an Excel-template from cell biology protocols (www.sciencegateway.org/ protocols/cellbio/drug/hcic50.htm). For statistical analysis an unpaired t-test was applied using GraphPad Prism 5.0.

HeLa cells [4] = format: cell-based; conditions: 24 h
Experimental: as §1, with “Due to the total release of LDH upon triton X-100 treatment, the control contained high LDH concentrations resulting in a fast substrate turnover that was only linear for the first 6 min.” left out

in vitro = format: cell-based, rat; conditions: rat
Experimental: as §1, §2

[5] = tested on: Primary rat cardiomyocytes; test: in vitro; format: cell-based; conditions: 24 h
Experimental: as §1, §2

HeLa cells [6] = test: Flow cytometry, cell uptake of Cf-labeled peptides; format: cell-based; conditions: flow cytometry (abstract)
Experimental: HeLa cells (50,000 for endocytosis inhibition and 70,000 for uptake kinetics) suspended in DMEM/F-12 medium (300 μL; see above) were seeded into 48-well plates (PS, sterile, flat bottom) and incubated (23 ± 1 h) using the conditions described above. Cells were washed twice with PBS (300 μL/well) and fresh medium was added (144 μL).
Peptide solutions (6 μL; 1 mmol/L in H2O) were added to achieve a concentration of 40 μmol/L at different time points. Cells were washed three times with PBS (300 μL/well), treated with trypsin (75 μL; 0.05% w/v trypsin, 5 min, 37°C), rinsed off the plate using cold PBS (600 μL/well), and trypsin was removed by two washing steps (400 × g, 4°C, 4 min, 600 μL PBS each). Cells were suspended in PBS (0.1 mL) containing eFluor660 (1000 × diluted in PBS) and incubated on ice in the dark. After 30 min, cells were washed with cold PBS twice, suspended in formaldehyde (100 μL; 2% w/v in PBS), incubated (15 min, RT), washed (200 μL PBS), stored in FACS buffer (200 μL; 3% FBS, 0.1% NaN3 in PBS) overnight, and analyzed on a FACSCalibur (Becton Dickinson, New Jersey, USA). Alternatively, cells were fixed directly without prior eFluor660 staining.

Row | Compound | QCM change in dissipation (ΔD) ([1]; 2-20 μmol/L, incubation period ii) | QCM frequency loss upon washing with PBS buffer ([1]; period iii, DMPC:DMPG 4:1) | IC50 on cell viability (HeLa cells [2]) [g/L] | Hemolytic grade (human erythrocytes) [%] | IC50 on cell viability (HeLa cells [3]) [g/L] | EC50 of LDH release (HeLa cells [4]) [g/L] | viability at 24 h, 0.6 g/L (in vitro) [%] | IC50 on cell viability [5] [g/L] | higher uptake compared with Api795 (HeLa cells [6]) [%] | QCM Δf (peptide insertion) ([1]; 2 μmol/L, DMPC:DMPG 4:1) [Hz] | QCM Δf (peptide insertion) ([1]; 5, 10, and 20 μmol/L, DMPC:DMPG 4:1) [Hz]
1 | CC[C@H](C)[C@H](NC(=O)[C@H](Cc1ccc(O)cc1)NC(=O)[C@@H](NC(=O)[C@@H]1CCCN1C(=O)[C@H](CCCNC(=N)N)NC(=O)[C@H](CC(N)=O)NC(=O)[C@H](CC(N)=O)NC(=O)[C@H](CCCN)N=C(N(C)C)N(C)C)C(C)C)C(=O)N1CCC[C@H]1C(=O)N[C@@H](CCCNC(=N)N)C(=O)N1CCC[C@H]1C(=O)N[C@@H](CCCNC(=N)N)C(=O)N1CCC[C@H]1C(=O)N1CCC[C@H]1C(=O)N[C@@H](Cc1c[nH]cn1)C(=O)N1CCC[C@H]1C(=O)N[C@@H](CCCNC(=N)N)C(=O)N[C@@H](CC(C)C)C(=O)O [Api137, gu-ONNRPVYIPRPRPPHPRL-OH, reference compound] ({Orn(α-tetramethylguanidino)}-NNRPVYIPRPRPPHPRL-OH) | No change | ~ 2 Hz | >0.6 | – | – | – | – | – | – | – | –
2 | CC(C)C[C@H](NC(=O)[C@H](CCCNC(=N)N)NC(=O)[C@@H]1CCCN1C(=O)[C@H](Cc1c[nH]cn1)NC(=O)[C@@H]1CCCN1C(=O)[C@@H]1CCCN1C(=O)[C@H](CCCNC(=N)N)NC(=O)[C@@H]1CCCN1C(=O)[C@H](CCCNC(=N)N)NC(=O)[C@@H]1CCCN1C(=O)[C@H](CCCN)NC(=O)[C@H](Cc1ccc(O)cc1)NC(=O)[C@@H](NC(=O)[C@@H]1CCCN1C(=O)[C@H](CCCNC(=N)N)NC(=O)[C@H](CCCN)NC(=O)[C@H](Cc1c[nH]c2ccccc12)NC(=O)[C@H](CCCN)NC(=O)[C@H](Cc1c[nH]c2ccccc12)NC(=O)[C@H](CCCN)NC(=O)[C@H](Cc1c[nH]c2ccccc12)NC(=O)[C@H](CCCN)N=C(N(C)C)N(C)C)C(C)C)C(=O)O [Api794, gu-O(WO)3RPVYOPRPRPPHPRL-OH] ({Orn(α-tetramethylguanidino)}-W[Orn]W[Orn]W[Orn]RPVY[Orn]PRPRPPHPRL-OH) | – | – | – | 1.7 ± 0.2 | 0.23 ± 0.09 (≈ 77.6 µM) | 0.56 ± 0.16 | 64 ± 3 | >0.6 | 50 | – | –
3 | CC[C@H](C)[C@H](NC(=O)[C@H](CCCN)N=C(N(C)C)N(C)C)C(=O)N[C@@H](CCCN)C(=O)N[C@H](C(=O)N[C@@H](CCCN)C(=O)N[C@@H](CCCNC(=N)N)C(=O)N1CCC[C@H]1C(=O)N[C@H](C(=O)N[C@@H](Cc1ccc(O)cc1)C(=O)N[C@@H](CCCN)C(=O)N1CCC[C@H]1C(=O)N[C@@H](CCCNC(=N)N)C(=O)N1CCC[C@H]1C(=O)N[C@@H](CCCNC(=N)N)C(=O)N1CCC[C@H]1C(=O)N1CCC[C@H]1C(=O)N[C@@H](Cc1c[nH]cn1)C(=O)N1CCC[C@H]1C(=O)N[C@@H](CCCNC(=N)N)C(=O)N[C@@H](CC(C)C)C(=O)O)C(C)C)[C@@H](C)CC [Api795, gu-O(IO)2RPVYOPRPRPPHPRL-OH] ({Orn(α-tetramethylguanidino)}-I[Orn]I[Orn]RPVY[Orn]PRPRPPHPRL-OH) | – | – | – | – | >0.6 | – | 83 ± 4 | >0.6 | – | 9 | 6
